Laboratory results taken from ChEMBL document CHEMBL3797178, “Synthesis, antimycobacterial and antibacterial activity of 1-(6-amino-3,5-difluoropyridin-2-yl)fluoroquinolone derivatives containing an oxime functional moiety” (2016).
Converted amounts (≈) assume the structure as drawn.

How the values were obtained:
Assay type in all cases: functional
Pseudomonas aeruginosa [1] = test: Antibacterial activity against Pseudomonas aeruginosa 14-9 after 18 to 24 hrs by CLSI M100-S11 method
Staphylococcus aureus [2] = test: Antibacterial activity against methicillin-sensitive Staphylococcus aureus 14-2 after 18 to 24 hrs by CLSI M100-S11 method
Enterococcus faecium [3] = test: Antibacterial activity against Enterococcus faecium 14-1 after 18 to 24 hrs by CLSI M100-S11 method
[4] = system: Staphylococcus epidermidis; test: Antibacterial activity against methicillin-resistant Staphylococcus epidermidis 14-22 after 18 to 24 hrs by CLSI M100-S11 method
Klebsiella pneumoniae [5] = test: Antibacterial activity against Klebsiella pneumoniae 14-2 after 18 to 24 hrs by CLSI M100-S11 method
Escherichia coli [6] = test: Antibacterial activity against Escherichia coli ATCC 25922 after 18 to 24 hrs by CLSI M100-S11 method
Enterococcus faecalis [7] = test: Antibacterial activity against Enterococcus faecalis 14-1 after 18 to 24 hrs by CLSI M100-S11 method
[8] = system: Staphylococcus epidermidis; test: Antibacterial activity against methicillin-sensitive Staphylococcus epidermidis 14-2 after 18 to 24 hrs by CLSI M100-S11 method
Klebsiella pneumoniae [9] = test: Antibacterial activity against extended-spectrum beta-lactamase-producing Klebsiella pneumoniae 14-17 after 18 to 24 hrs by CLSI M100-S11 method
Klebsiella pneumoniae [10] = test: Antibacterial activity against Klebsiella pneumoniae 14-4 after 18 to 24 hrs by CLSI M100-S11 method
Pseudomonas aeruginosa [11] = test: Antibacterial activity against Pseudomonas aeruginosa 14-19 after 18 to 24 hrs by CLSI M100-S11 method
Escherichia coli [12] = test: Antibacterial activity against Escherichia coli 14-1 after 18 to 24 hrs by CLSI M100-S11 method
Staphylococcus aureus [13] = test: Antibacterial activity against Staphylococcus aureus CMCC 26003 after 18 to 24 hrs by CLSI M100-S11 method
Pseudomonas aeruginosa [14] = test: Antibacterial activity against Pseudomonas aeruginosa 14-14 after 18 to 24 hrs by CLSI M100-S11 method
Pseudomonas aeruginosa [15] = test: Antibacterial activity against Pseudomonas aeruginosa ATCC 27853 after 18 to 24 hrs by CLSI M100-S11 method
Enterococcus faecalis [16] = test: Antibacterial activity against Enterococcus faecalis 14-2 after 18 to 24 hrs by CLSI M100-S11 method
[17] = system: Staphylococcus epidermidis; test: Antibacterial activity against methicillin-sensitive Staphylococcus epidermidis 14-4 after 18 to 24 hrs by CLSI M100-S11 method
Klebsiella pneumoniae [18] = test: Antibacterial activity against Klebsiella pneumoniae 14-1 after 18 to 24 hrs by CLSI M100-S11 method
Streptococcus pneumoniae = test: Antibacterial activity against Streptococcus pneumoniae ATCC 19615 after 18 to 24 hrs by CLSI M100-S11 method
Enterococcus faecalis [19] = test: Antibacterial activity against Enterococcus faecalis 14-3 after 18 to 24 hrs by CLSI M100-S11 method
[20] = system: Mycobacterium tuberculosis; test: Antimycobacterial activity against Mycobacterium tuberculosis H37Rv ATCC 27294 after 3 days by microplate Alamar Blue assay; conditions: H37Rv ATCC 27294, 72 h
Staphylococcus aureus [21] = test: Antibacterial activity against methicillin-sensitive Staphylococcus aureus 14-4 after 18 to 24 hrs by CLSI M100-S11 method
Pseudomonas aeruginosa [22] = test: Antibacterial activity against Pseudomonas aeruginosa 14-15 after 18 to 24 hrs by CLSI M100-S11 method
Klebsiella pneumoniae [23] = test: Antibacterial activity against extended-spectrum beta-lactamase-producing Klebsiella pneumoniae 14-19 after 18 to 24 hrs by CLSI M100-S11 method
[24] = system: Staphylococcus epidermidis; test: Antibacterial activity against methicillin-sensitive Staphylococcus epidermidis 14-6 after 18 to 24 hrs by CLSI M100-S11 method
Enterococcus faecium [25] = test: Antibacterial activity against Enterococcus faecium 14-2 after 18 to 24 hrs by CLSI M100-S11 method
Escherichia coli [26] = test: Antibacterial activity against extended-spectrum beta-lactamase-producing Escherichia coli 14-2 after 18 to 24 hrs by CLSI M100-S11 method
Pseudomonas aeruginosa [27] = test: Antibacterial activity against Pseudomonas aeruginosa 14-16 after 18 to 24 hrs by CLSI M100-S11 method
Klebsiella pneumoniae [28] = test: Antibacterial activity against Klebsiella pneumoniae 14-3 after 18 to 24 hrs by CLSI M100-S11 method
[29] = system: Staphylococcus epidermidis; test: Antibacterial activity against methicillin-resistant Staphylococcus epidermidis 14-39 after 18 to 24 hrs by CLSI M100-S11 method
Staphylococcus aureus [30] = test: Antibacterial activity against methicillin-resistant Staphylococcus aureus 14-5 after 18 to 24 hrs by CLSI M100-S11 method
Staphylococcus aureus [31] = test: Antibacterial activity against methicillin-resistant Staphylococcus aureus 14-4 after 18 to 24 hrs by CLSI M100-S11 method
[32] = system: Staphylococcus epidermidis; test: Antibacterial activity against methicillin-resistant Staphylococcus epidermidis 14-37 after 18 to 24 hrs by CLSI M100-S11 method
Staphylococcus aureus [33] = test: Antibacterial activity against methicillin-sensitive Staphylococcus aureus 14-3 after 18 to 24 hrs by CLSI M100-S11 method
Klebsiella pneumoniae [34] = test: Antibacterial activity against extended-spectrum beta-lactamase-producing Klebsiella pneumoniae 14-18 after 18 to 24 hrs by CLSI M100-S11 method
Escherichia coli [35] = test: Antibacterial activity against Escherichia coli 14-2 after 18 to 24 hrs by CLSI M100-S11 method
Escherichia coli [36] = test: Antibacterial activity against extended-spectrum beta-lactamase-producing Escherichia coli 14-1 after 18 to 24 hrs by CLSI M100-S11 method

| Structure (SMILES) | MIC (Pseudomonas aeruginosa [1]) [µg/mL] | MIC (Staphylococcus aureus [2]) [µg/mL] | MIC (Enterococcus faecium [3]) [µg/mL] | MIC [4] [µg/mL] | MIC (Klebsiella pneumoniae [5]) [µg/mL] | MIC (Escherichia coli [6]) [µg/mL] | MIC (Enterococcus faecalis [7]) [µg/mL] | MIC [8] [µg/mL] | MIC (Klebsiella pneumoniae [9]) [µg/mL] | MIC (Klebsiella pneumoniae [10]) [µg/mL] | MIC (Pseudomonas aeruginosa [11]) [µg/mL] | MIC (Escherichia coli [12]) [µg/mL] | MIC (Staphylococcus aureus [13]) [µg/mL] | MIC (Pseudomonas aeruginosa [14]) [µg/mL] | MIC (Pseudomonas aeruginosa [15]) [µg/mL] | MIC (Enterococcus faecalis [16]) [µg/mL] | MIC [17] [µg/mL] | MIC (Klebsiella pneumoniae [18]) [µg/mL] | MIC (Streptococcus pneumoniae) [µg/mL] | MIC (Enterococcus faecalis [19]) [µg/mL] | further results |
| --- | --- | --- | --- | --- | --- | --- | --- | --- | --- | --- | --- | --- | --- | --- | --- | --- | --- | --- | --- | --- | --- |
| CO/N=C1\CN(c2c(F)cc3c(=O)c(C(=O)O)cn(-c4nc(N)c(F)cc4F)c3c2Cl)CC1CN (centres undefined) | 8 (≈ 15.7 µM) | 0.06 (≈ 0.117 µM) | > 128 | 64 (≈ 125 µM) | > 128 | 0.125 (≈ 0.245 µM) | 16 (≈ 31.3 µM) | 64 (≈ 125 µM) | 32 (≈ 62.6 µM) | 128 (≈ 251 µM) | 8 (≈ 15.7 µM) | 64 (≈ 125 µM) | 0.03 (≈ 0.0587 µM) | 8 (≈ 15.7 µM) | 4 (≈ 7.83 µM) | 64 (≈ 125 µM) | 32 (≈ 62.6 µM) | 64 (≈ 125 µM) | 16 (≈ 31.3 µM) | 32 (≈ 62.6 µM) | MIC [20]: 30.5 µg/mL (≈ 59.7 µM); MIC (Staphylococcus aureus [21]): 0.25 µg/mL (≈ 0.489 µM); MIC (Pseudomonas aeruginosa [22]): 8 µg/mL (≈ 15.7 µM); MIC (Klebsiella pneumoniae [23]): 128 µg/mL (≈ 251 µM); MIC [24]: 64 µg/mL (≈ 125 µM); MIC (Enterococcus faecium [25]): 8 µg/mL (≈ 15.7 µM); MIC (Escherichia coli [26]): 64 µg/mL (≈ 125 µM); MIC (Pseudomonas aeruginosa [27]): 8 µg/mL (≈ 15.7 µM); MIC (Klebsiella pneumoniae [28]): 128 µg/mL (≈ 251 µM); MIC [29]: 32 µg/mL (≈ 62.6 µM); MIC (Staphylococcus aureus [30]): 128 µg/mL (≈ 251 µM); MIC (Staphylococcus aureus [31]): 128 µg/mL (≈ 251 µM); MIC [32]: 64 µg/mL (≈ 125 µM); MIC (Staphylococcus aureus [33]): 0.125 µg/mL (≈ 0.245 µM); MIC (Klebsiella pneumoniae [34]): 16 µg/mL (≈ 31.3 µM); MIC (Escherichia coli [35]): 64 µg/mL (≈ 125 µM); MIC (Escherichia coli [36]): 2 µg/mL (≈ 3.91 µM) |
| CO/N=C1\CCN(c2c(F)cc3c(=O)c(C(=O)O)cn(-c4nc(N)c(F)cc4F)c3c2Cl)CC1N (centres undefined) | 64 (≈ 125 µM) | 0.5 (≈ 0.979 µM) | > 128 | > 128 | > 128 | 1 (≈ 1.96 µM) | > 128 | > 128 | > 128 | > 128 | 128 (≈ 251 µM) | > 128 | 0.5 (≈ 0.979 µM) | 64 (≈ 125 µM) | 16 (≈ 31.3 µM) | > 128 | 128 (≈ 251 µM) | > 128 | 64 (≈ 125 µM) | > 128 | MIC [20]: > 32 µg/mL; MIC (Staphylococcus aureus [21]): 0.5 µg/mL (≈ 0.979 µM); MIC (Pseudomonas aeruginosa [22]): 64 µg/mL (≈ 125 µM); MIC (Klebsiella pneumoniae [23]): > 128 µg/mL; MIC [24]: 128 µg/mL (≈ 251 µM); MIC (Enterococcus faecium [25]): 16 µg/mL (≈ 31.3 µM); MIC (Escherichia coli [26]): > 128 µg/mL; MIC (Pseudomonas aeruginosa [27]): 128 µg/mL (≈ 251 µM); MIC (Klebsiella pneumoniae [28]): > 128 µg/mL; MIC [29]: > 128 µg/mL; MIC (Staphylococcus aureus [30]): > 128 µg/mL; MIC (Staphylococcus aureus [31]): > 128 µg/mL; MIC [32]: > 128 µg/mL; MIC (Staphylococcus aureus [33]): 0.25 µg/mL (≈ 0.489 µM); MIC (Klebsiella pneumoniae [34]): 128 µg/mL (≈ 251 µM); MIC (Escherichia coli [35]): > 128 µg/mL; MIC (Escherichia coli [36]): 64 µg/mL (≈ 125 µM) |
